How the values were obtained:
[1] = molecular target: 5-hydroxytryptamine receptor 2A (Homo sapiens, UniProt P28223); test: Agonist activity at human 5HT2A receptor stably expressed in Flp-In-T-REx-293 cells assessed as increase in Gq-mediated calcium flux by Fluo-4 direct dye based FLIPR Tetra assay; assay type: functional, cell-based
[2] = molecular target: 5-hydroxytryptamine receptor 2B (Homo sapiens, UniProt P41595); test: Agonist activity at human 5HT2B receptor stably expressed in Flp-In-T-REx-293 cells assessed as maximal Gq-mediated calcium flux by Fluo-4 direct dye based FLIPR Tetra assay relative to control; assay type: functional, cell-based; conditions: filed as agonist
5-hydroxytryptamine receptor 2B, sequence (P41595 whole entry): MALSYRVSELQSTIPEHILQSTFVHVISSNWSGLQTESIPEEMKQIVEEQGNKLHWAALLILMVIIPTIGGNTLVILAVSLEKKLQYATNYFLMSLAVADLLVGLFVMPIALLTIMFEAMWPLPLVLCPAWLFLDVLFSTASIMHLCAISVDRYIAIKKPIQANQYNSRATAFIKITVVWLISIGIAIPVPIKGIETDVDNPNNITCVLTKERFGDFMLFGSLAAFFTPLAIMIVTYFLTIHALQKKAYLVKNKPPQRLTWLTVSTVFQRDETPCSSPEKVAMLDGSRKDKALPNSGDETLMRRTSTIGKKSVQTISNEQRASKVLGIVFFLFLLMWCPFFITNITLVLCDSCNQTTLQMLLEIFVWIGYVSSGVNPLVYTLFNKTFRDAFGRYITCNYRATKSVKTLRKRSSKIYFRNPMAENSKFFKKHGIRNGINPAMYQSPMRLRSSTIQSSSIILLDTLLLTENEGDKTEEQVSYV

[3] = molecular target: T1, 5-hydroxytryptamine receptor 2C (Homo sapiens, UniProt P28335); test: Binding affinity to 5HT2C receptor (unknown origin) assessed as inhibition constant
T1 sequence (P28335 whole entry): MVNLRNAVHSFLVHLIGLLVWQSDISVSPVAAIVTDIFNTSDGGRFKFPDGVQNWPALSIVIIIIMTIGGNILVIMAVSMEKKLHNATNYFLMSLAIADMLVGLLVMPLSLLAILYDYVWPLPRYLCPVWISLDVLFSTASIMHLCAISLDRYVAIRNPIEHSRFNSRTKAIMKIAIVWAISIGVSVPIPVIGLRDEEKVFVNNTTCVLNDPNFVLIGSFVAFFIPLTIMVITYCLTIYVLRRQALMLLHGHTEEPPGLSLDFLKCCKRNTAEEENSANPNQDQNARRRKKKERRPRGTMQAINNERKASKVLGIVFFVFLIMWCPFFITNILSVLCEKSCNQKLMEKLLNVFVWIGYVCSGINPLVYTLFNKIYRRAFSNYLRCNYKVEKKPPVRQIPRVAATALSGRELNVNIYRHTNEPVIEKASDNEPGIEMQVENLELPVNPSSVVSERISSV

[4] = molecular target: Sodium-dependent serotonin transporter (Homo sapiens, UniProt P31645); test: Inhibition of SERT receptor (unknown origin); conditions: concentration not given here
Sodium-dependent serotonin transporter, sequence (P31645 whole entry, looked up): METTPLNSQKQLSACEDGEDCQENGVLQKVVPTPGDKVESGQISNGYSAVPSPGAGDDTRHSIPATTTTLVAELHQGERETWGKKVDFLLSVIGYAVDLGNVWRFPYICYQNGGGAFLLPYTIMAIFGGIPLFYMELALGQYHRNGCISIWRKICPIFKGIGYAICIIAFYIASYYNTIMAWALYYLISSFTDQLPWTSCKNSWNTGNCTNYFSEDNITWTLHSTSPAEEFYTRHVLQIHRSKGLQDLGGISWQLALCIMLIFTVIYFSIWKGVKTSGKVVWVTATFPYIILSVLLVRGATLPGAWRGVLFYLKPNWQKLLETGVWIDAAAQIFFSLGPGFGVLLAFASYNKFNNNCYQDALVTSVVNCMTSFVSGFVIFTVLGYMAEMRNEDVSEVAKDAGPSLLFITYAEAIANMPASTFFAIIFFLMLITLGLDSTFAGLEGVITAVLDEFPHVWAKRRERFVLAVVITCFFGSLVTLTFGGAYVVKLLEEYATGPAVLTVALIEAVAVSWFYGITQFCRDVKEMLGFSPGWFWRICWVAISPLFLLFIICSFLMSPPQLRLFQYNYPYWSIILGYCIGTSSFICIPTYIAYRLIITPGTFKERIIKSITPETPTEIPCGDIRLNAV

[5] = molecular target: T2, Alpha-1A adrenergic receptor (Homo sapiens) (UniProt P35348); test: Inhibition of alpha1A receptor (unknown origin); conditions: concentration not given here
T2 sequence (whole entry): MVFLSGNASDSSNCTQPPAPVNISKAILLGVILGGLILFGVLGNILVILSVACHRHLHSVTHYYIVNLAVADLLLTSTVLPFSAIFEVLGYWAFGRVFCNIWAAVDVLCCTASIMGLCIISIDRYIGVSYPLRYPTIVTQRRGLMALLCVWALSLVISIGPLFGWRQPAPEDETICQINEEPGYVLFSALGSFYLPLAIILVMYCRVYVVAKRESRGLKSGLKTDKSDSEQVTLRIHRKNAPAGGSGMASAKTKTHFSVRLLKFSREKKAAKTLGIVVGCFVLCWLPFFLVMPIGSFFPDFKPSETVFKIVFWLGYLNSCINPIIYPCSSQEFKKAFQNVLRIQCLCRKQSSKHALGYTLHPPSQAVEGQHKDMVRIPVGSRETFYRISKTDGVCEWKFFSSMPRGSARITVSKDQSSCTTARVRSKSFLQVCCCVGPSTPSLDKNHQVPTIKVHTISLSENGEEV

[6] = molecular target: T3, Alpha-2B adrenergic receptor (Homo sapiens) (UniProt P18089); test: Inhibition of alpha2B receptor (unknown origin); conditions: concentration not given here
T3 sequence (whole entry): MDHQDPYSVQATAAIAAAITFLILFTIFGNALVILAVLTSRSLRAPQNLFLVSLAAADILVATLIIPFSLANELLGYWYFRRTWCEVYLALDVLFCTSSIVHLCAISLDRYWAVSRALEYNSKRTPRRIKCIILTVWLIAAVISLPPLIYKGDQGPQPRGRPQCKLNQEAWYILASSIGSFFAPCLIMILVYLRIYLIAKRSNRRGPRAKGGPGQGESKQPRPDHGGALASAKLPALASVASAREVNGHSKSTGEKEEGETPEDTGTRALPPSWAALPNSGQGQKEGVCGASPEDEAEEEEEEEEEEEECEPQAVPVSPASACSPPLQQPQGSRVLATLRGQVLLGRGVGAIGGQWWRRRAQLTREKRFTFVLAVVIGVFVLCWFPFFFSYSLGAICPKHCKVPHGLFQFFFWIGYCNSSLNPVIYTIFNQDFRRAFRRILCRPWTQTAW

[7] = molecular target: Beta-2 adrenergic receptor (Homo sapiens) (UniProt P07550); test: Inhibition of beta 2 receptor (unknown origin); conditions: concentration not given here
Beta-2 adrenergic receptor (Homo sapiens), sequence (P07550 whole entry, looked up): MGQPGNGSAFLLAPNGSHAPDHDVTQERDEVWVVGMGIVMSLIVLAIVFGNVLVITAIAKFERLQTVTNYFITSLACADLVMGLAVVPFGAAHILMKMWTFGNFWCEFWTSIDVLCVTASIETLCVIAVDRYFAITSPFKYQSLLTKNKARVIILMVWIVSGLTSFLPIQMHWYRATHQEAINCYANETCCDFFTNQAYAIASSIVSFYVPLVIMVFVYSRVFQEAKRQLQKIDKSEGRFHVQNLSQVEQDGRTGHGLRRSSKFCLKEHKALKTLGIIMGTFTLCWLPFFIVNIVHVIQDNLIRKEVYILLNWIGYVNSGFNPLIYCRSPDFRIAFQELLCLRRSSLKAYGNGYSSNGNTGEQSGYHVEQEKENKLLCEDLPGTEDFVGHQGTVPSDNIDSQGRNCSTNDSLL

[8] = molecular target: Histamine H1 receptor (Homo sapiens) (UniProt P35367); test: Inhibition of H1 receptor (unknown origin); conditions: concentration not given here
Histamine H1 receptor (Homo sapiens), sequence (P35367 whole entry): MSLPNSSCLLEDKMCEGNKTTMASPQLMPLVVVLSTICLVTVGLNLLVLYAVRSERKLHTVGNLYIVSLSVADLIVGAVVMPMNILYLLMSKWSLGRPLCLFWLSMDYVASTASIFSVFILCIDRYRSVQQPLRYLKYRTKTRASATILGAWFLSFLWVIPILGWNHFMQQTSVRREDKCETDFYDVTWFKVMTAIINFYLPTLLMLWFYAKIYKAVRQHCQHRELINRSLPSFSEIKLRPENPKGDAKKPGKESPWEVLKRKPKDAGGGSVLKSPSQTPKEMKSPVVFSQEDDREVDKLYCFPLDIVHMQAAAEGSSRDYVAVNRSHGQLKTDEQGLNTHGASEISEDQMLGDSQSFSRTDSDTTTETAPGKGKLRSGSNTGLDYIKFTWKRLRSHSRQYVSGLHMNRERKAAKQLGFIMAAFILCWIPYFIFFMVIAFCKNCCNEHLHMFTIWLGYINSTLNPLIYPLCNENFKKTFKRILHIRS

[9] = molecular target: T4, Muscarinic acetylcholine receptor M2 (Homo sapiens) (UniProt P08172); test: Inhibition of M2 receptor (unknown origin); conditions: concentration not given here
T4 sequence (whole entry): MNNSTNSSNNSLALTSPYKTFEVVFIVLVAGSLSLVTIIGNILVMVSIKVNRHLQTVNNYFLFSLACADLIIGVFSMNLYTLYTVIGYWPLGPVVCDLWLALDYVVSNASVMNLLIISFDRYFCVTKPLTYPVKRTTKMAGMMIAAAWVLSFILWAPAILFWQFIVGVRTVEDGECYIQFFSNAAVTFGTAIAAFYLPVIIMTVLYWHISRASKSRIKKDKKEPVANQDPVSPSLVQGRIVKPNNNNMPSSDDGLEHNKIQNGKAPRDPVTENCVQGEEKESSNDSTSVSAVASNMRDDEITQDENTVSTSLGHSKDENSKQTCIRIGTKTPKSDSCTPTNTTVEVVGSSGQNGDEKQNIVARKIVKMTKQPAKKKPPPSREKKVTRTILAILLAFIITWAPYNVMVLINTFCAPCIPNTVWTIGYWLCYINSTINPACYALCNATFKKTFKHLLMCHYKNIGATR

[10] = molecular target: Muscarinic acetylcholine receptor M3 (Homo sapiens) (UniProt P20309); test: Inhibition of M3 receptor (unknown origin); conditions: concentration not given here
Muscarinic acetylcholine receptor M3 (Homo sapiens), sequence (P20309 whole entry, looked up): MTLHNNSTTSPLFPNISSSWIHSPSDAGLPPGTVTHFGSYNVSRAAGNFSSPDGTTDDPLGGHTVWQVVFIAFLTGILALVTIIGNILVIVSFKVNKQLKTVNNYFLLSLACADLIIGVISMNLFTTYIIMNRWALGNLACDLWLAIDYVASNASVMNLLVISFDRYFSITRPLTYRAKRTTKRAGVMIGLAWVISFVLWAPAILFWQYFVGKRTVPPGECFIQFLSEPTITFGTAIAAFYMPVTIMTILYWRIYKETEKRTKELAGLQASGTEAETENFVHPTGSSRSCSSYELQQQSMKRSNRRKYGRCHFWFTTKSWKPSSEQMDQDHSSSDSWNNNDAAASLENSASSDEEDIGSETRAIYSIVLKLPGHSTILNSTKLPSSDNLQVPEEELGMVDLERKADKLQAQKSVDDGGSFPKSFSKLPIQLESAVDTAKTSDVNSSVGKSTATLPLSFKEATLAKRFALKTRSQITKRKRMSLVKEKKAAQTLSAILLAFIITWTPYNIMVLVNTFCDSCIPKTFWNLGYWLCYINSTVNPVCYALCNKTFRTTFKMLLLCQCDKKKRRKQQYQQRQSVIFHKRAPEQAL

[11] = molecular target: Sodium-dependent noradrenaline transporter (Homo sapiens) (UniProt P23975); test: Inhibition of NET receptor (unknown origin); conditions: concentration not given here
Sodium-dependent noradrenaline transporter (Homo sapiens), sequence (P23975 whole entry): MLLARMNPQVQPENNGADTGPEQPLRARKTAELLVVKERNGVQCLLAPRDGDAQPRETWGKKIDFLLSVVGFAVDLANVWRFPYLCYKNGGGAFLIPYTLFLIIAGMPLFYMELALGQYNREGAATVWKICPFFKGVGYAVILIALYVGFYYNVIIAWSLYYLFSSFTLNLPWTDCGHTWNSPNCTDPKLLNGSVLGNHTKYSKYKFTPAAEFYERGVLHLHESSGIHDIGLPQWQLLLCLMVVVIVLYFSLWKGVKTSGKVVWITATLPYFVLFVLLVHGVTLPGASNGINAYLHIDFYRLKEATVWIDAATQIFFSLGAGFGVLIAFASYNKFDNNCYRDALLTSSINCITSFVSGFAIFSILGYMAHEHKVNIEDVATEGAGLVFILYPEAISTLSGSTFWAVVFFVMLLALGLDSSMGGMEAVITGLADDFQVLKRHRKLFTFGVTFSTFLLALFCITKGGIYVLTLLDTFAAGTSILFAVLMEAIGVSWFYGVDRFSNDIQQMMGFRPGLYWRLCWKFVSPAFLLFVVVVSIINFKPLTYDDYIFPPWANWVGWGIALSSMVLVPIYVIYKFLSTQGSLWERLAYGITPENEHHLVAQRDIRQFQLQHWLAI

[12] = molecular target: GABA-A receptor; anion channel (Homo sapiens) (UniProt P14867+P47870+P18507+P28472+P48169+Q99928+Q9UN88+P34903+O00591+O14764+Q8N1C3+P18505+P78334+P47869+P31644+Q16445); test: Inhibition of GABA-A receptor (unknown origin); assay type: protein-complex assay; conditions: concentration not given here
[13] = molecular target: D(3) dopamine receptor (Homo sapiens, UniProt P35462); test: Inhibition of D3 receptor (unknown origin); conditions: concentration not given here
D(3) dopamine receptor, sequence (P35462 whole entry): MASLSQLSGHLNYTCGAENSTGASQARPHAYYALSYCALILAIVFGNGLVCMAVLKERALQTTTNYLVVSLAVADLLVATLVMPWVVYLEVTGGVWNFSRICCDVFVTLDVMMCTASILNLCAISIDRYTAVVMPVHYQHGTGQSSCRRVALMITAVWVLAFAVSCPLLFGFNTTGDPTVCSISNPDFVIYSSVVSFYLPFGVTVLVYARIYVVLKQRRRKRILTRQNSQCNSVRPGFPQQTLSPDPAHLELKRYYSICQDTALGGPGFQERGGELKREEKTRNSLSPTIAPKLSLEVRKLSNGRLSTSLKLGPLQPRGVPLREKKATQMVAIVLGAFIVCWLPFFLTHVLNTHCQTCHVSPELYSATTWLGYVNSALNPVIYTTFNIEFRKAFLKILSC

5-hydroxytryptamine receptor 2A, sequence (P28223 whole entry): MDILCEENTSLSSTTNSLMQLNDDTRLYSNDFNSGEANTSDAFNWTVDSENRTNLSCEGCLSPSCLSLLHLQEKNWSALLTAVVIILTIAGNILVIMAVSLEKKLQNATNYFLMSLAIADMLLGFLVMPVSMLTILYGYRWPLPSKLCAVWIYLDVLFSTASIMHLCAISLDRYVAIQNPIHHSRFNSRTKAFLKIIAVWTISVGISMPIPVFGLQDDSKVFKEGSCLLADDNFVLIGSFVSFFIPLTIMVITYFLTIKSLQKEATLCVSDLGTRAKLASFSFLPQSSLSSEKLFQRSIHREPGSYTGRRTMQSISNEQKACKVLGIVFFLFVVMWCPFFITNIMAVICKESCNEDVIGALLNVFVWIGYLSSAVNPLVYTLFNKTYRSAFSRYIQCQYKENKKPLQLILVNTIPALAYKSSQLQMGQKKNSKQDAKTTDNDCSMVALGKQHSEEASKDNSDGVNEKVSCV

EC50 [1] [nM]	Emax [2] [%]	Ki [3] [nM]	inhibition [4] [%]	inhibition [5] [%]	inhibition [6] [%]	inhibition [7] [%]	inhibition [8] [%]	inhibition [9] [%]	inhibition [10] [%]	inhibition [11] [%]	inhibition [12] [%]	inhibition [13] [%]	SMILES
8.3	99.4	35.9	< 50	< 50	< 50	< 50	< 50	< 50	< 50	< 50	< 50		COc1ccc(C2NCCc3c2[nH]c2ccc(Cl)cc32)c(O)c1 (stereo not given)
3.2	102	49.8		< 50	< 50	< 50	< 50	< 50	< 50	< 50	< 50	< 50	COc1ccc(C2NCCc3c2[nH]c2ccc(F)cc32)c(O)c1 (stereo not given)
1.7	96.7	25.2	< 50	< 50	< 50	< 50	< 50	< 50	< 50	< 50	< 50	< 50	COc1cc(OC)c(C2NCCc3c2[nH]c2ccc(Cl)cc32)cc1OC (stereo not given)
39	106	671	< 50	< 50	< 50	< 50	< 50	< 50	< 50	< 50	< 50	< 50	COc1cc(OC)c(C2NCCc3c2[nH]c2ccc(F)cc32)cc1OC (stereo not given)

Reference: ChEMBL document CHEMBL5131517 (ACS Med Chem Lett, 2022)
